Experimental data reported in BindingDB's records for patent US11046658 (Incyte, 2021).

Assays:
[1] = target: Phosphatidylinositol 4,5-bisphosphate 3-kinase catalytic subunit gamma isoform (Homo sapiens, UniProt P48736); assay: PI3K-gamma Scintillation Proximity Assay
From the text: (§1) Materials: [γ-33P]ATP (10 mCi/mL) and Wheat Germ Agglutinin (WGA) YSi SPA Scintillation Beads was purchased from Perkin Elmer (Waltham, Mass.). Lipid kinase substrate, D-myo-Phosphatidylinositol 4,5-bisphosphate (PtdIns(4,5)P2)D (+)-sn-1,2-di-O-octanoylglyceryl, 3-O-phospho linked (PIP2), CAS 204858-53-7, was purchased from Echelon Biosciences (Salt Lake City, Utah). PI3Kγ (p110γ) Recombinant Human Protein was purchased from Life technology (Grand Island, N.Y.). ATP, MgCl2, DTT, EDTA, MOPS and CHAPS were purchased from Sigma Aldrich (St. Louis, Mo.).The kinase reaction was conducted in polystyrene 384-well Greiner Bio-one white plate from Thermo Fisher Scientific in a final volume of 25 μL. Inhibitors were first diluted serially in DMSO and added to the plate wells before the addition of other reaction components. The final concentration of DMSO in the assay was 2%. The PI3Kγ assay was carried out at room temperature in 20 mM MOPS, pH 6.7, 10 mM MgCl2, 5 mM DTT and CHAPS 0.03%. Reactions were initiated by the addition of ATP, the final reaction mixture consisted of 20 μM PIP2, 2 μM ATP, 0.5 μCi [γ-33P] ATP, 13 nM PI3Kγ. […] After the plate sealing, plates were shaken overnight at room temperature and centrifuged at 1500 rpm for 10 min, the radioactivity of the product was determined by scintillation counting on Topcount (Perkin-Elmer). […]

[2] = target: T1, Phosphatidylinositol 4,5-bisphosphate 3-kinase catalytic subunit delta isoform (Homo sapiens, UniProt O00329); assay: PI3Kdelta Scintillation Proximity Assay
T1 sequence (O00329 whole entry): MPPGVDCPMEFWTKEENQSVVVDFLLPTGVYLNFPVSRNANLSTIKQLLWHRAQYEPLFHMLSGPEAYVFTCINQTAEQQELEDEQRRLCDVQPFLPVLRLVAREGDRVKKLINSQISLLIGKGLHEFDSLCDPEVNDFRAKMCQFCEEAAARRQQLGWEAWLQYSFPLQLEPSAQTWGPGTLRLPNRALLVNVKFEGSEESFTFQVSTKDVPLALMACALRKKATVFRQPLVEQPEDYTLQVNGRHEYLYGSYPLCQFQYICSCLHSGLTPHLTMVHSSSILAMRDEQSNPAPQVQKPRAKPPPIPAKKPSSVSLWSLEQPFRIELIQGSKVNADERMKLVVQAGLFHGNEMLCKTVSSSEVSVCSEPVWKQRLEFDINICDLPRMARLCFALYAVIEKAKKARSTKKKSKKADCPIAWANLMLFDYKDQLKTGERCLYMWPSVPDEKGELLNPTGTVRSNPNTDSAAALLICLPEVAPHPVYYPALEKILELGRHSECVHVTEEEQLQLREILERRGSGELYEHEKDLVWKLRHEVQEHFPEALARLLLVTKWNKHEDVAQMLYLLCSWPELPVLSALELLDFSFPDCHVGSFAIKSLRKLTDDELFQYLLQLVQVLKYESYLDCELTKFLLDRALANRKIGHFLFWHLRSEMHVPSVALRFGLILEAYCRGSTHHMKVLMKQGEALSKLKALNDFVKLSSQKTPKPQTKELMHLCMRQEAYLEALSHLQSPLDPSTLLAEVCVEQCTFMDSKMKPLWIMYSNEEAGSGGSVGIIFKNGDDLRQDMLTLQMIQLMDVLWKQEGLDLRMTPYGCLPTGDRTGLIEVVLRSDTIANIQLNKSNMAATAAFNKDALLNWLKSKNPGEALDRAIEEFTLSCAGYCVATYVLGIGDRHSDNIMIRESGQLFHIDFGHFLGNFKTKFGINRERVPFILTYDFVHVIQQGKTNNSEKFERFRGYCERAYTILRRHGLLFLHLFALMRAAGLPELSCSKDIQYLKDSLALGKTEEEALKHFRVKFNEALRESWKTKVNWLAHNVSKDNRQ
From the text: as §1, with “PI3Kδ (p110δ/p85α)” for “PI3Kγ (p110γ)”, “Eurofins (St Charles, Mo.).” for “Life technology (Grand Island, N.Y.).”, “PI3Kδ” for “PI3Kγ”, “3.4” for “13”, “PI3Kδ.” for “PI3Kγ.”, “(PerkinElmer).” for “(Perkin-Elmer).”

Chain of Phosphatidylinositol 4,5-bisphosphate 3-kinase catalytic subunit gamma isoform (P48736 whole entry, canonical isoform): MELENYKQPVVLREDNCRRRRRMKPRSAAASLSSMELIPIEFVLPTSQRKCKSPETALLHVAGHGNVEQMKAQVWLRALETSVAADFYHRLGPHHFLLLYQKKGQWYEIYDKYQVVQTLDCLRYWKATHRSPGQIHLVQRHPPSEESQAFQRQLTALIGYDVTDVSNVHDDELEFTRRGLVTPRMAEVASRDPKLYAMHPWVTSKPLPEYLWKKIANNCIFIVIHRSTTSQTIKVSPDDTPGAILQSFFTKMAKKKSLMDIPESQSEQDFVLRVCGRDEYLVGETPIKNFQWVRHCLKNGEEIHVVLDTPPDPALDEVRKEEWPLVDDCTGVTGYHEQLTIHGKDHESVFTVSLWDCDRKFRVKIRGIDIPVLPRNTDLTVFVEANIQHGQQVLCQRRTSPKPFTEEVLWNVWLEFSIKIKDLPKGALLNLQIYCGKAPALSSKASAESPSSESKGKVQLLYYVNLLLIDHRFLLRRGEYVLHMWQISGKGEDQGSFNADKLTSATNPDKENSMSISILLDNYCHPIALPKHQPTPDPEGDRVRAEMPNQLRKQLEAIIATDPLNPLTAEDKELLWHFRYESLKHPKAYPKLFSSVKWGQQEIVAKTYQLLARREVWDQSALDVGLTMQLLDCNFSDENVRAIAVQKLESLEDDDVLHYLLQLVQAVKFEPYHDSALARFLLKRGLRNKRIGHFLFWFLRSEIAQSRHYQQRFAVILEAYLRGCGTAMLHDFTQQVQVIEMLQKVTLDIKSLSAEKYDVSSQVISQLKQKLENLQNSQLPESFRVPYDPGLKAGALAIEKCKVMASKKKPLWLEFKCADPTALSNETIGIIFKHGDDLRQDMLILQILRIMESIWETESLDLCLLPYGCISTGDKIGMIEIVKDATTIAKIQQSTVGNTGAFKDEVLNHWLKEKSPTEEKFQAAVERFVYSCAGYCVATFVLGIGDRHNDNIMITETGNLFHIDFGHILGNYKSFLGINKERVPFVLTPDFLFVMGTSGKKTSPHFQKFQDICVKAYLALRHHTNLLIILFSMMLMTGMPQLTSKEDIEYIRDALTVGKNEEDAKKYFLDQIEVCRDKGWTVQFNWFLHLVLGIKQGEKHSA

## C#Cc1ccccc1N1CCN(c2nc(-c3cc(C(O)(C(N)=O)C(F)(F)F)ccc3C)cnc2N)CC1 (configuration not stated) [US11046658, Example 122]
[1]
  IC50: < 100 nM
[2]
  IC50: < 100 nM
